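Test compounds were applied to cells in 96-well plates for 48 hours at 5 doses. Abbreviation: GI50, concentration required for 50% inhibition of growth.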 Calls of active or inactive are those of the source. No stated cut-off is given here; in the data, active = GI50 up to about 1.1 µM and inactive = higher.
Experiments:
Assay in all cases: inhibition of tumour cell growth, NCI panel, 48 h
786-0 = system: 786-0
A498 = system: A498
A549 = system: A549
ACHN = system: ACHN
BT-549 = system: BT-549
CAKI-1 = system: CAKI-1
CCRF-CEM = system: CCRF-CEM
COLO 205 = system: COLO 205
DU-145 = system: DU-145
EKVX = system: EKVX
HCC 2998 = system: HCC 2998
HCT-116 = system: HCT-116
HCT-15 = system: HCT-15
HL-60 = system: HL-60
HOP-62 = system: HOP-62
HOP-92 = system: HOP-92
HT-29 = system: HT-29
Hs-578T = system: Hs-578T
IGROV-1 = system: IGROV-1
K562 = system: K562
KM12 = system: KM12
M14 = system: M14
MCF7 = system: MCF7
MDA-MB-231 = system: MDA-MB-231
MDA-MB-435 = system: MDA-MB-435
MDA-N = system: MDA-N
MOLT-4 = system: MOLT-4
Malme-3M = system: Malme-3M
NCI-H226 = system: NCI-H226
NCI-H23 = system: NCI-H23
NCI-H460 = system: NCI-H460
NCI-H522 = system: NCI-H522
NCI/ADR-RES = system: NCI/ADR-RES
OVCAR-3 = system: OVCAR-3
OVCAR-4 = system: OVCAR-4
OVCAR-5 = system: OVCAR-5
OVCAR-8 = system: OVCAR-8
PC-3 = system: PC-3
RPMI-8226 = system: RPMI-8226
RXF 393 = system: RXF 393
SF-268 = system: SF-268
SF-295 = system: SF-295
SF-539 = system: SF-539
SK-MEL-28 = system: SK-MEL-28
SK-MEL-2 = system: SK-MEL-2
SK-MEL-5 = system: SK-MEL-5
SK-OV-3 = system: SK-OV-3
SN12C = system: SN12C
SNB-19 = system: SNB-19
SNB-75 = system: SNB-75
SR = system: SR
SW-620 = system: SW-620
T47D = system: T47D
TK-10 = system: TK-10
U-251 = system: U-251
UACC-257 = system: UACC-257
UACC-62 = system: UACC-62
UO-31 = system: UO-31
LOX IMVI = system: LOX IMVI

Q: Which results are given for `N#Cc1c2c(c(Nc3ccc(F)cc3)n3c1nc1ccccc13)CCCC2`?
A: GI50 (786-0): 56.2 µM (inactive); GI50 (A498): > 100 µM (inactive); GI50 (A549): 97.9 µM (inactive); GI50 (ACHN): 1.8 µM (inactive); GI50 (BT-549): > 91.6 µM (inactive); GI50 (CAKI-1): > 52.2 µM (inactive); GI50 (CCRF-CEM): > 22.5 µM (inactive); GI50 (COLO 205): > 22.1 µM (inactive); GI50 (DU-145): > 48.5 µM (inactive); GI50 (EKVX): > 100 µM (inactive); GI50 (HCC 2998): > 100 µM (inactive); GI50 (HCT-116): 20 µM (inactive); GI50 (HCT-15): > 100 µM; GI50 (HL-60): 9.93 µM (inactive); GI50 (HOP-62): 29.1 µM (inactive); GI50 (HOP-92): 26.9 µM (inactive); GI50 (HT-29): > 100 µM (inactive); GI50 (Hs-578T): 36.9 µM (inactive); GI50 (IGROV-1): > 59.3 µM (inactive); GI50 (K562): 0.562 µM (active); GI50 (KM12): 5.6 µM (inactive); GI50 (M14): 1.7 µM (inactive); GI50 (MCF7): > 32.5 µM (inactive); GI50 (MDA-MB-231): > 100 µM (inactive); GI50 (MDA-MB-435): > 24.9 µM (inactive); GI50 (MDA-N): > 28.6 µM (inactive); GI50 (MOLT-4): 6.32 µM (inactive); GI50 (Malme-3M): > 100 µM (inactive); GI50 (NCI-H226): > 80 µM (inactive); GI50 (NCI-H23): > 100 µM (inactive); GI50 (NCI-H460): 23.1 µM (inactive); GI50 (NCI-H522): > 62.1 µM (inactive); GI50 (NCI/ADR-RES): > 100 µM (inactive); GI50 (OVCAR-3): > 100 µM (inactive); GI50 (OVCAR-4): > 87.3 µM (inactive); GI50 (OVCAR-5): > 100 µM (inactive); GI50 (OVCAR-8): > 67.3 µM (inactive); GI50 (PC-3): 5.36 µM (inactive); GI50 (RPMI-8226): 10.5 µM (inactive); GI50 (RXF 393): 24 µM (inactive); GI50 (SF-268): > 100 µM (inactive); GI50 (SF-295): 8.15 µM (inactive); GI50 (SF-539): > 55.5 µM (inactive); GI50 (SK-MEL-28): > 100 µM (inactive); GI50 (SK-MEL-2): > 100 µM (inactive); GI50 (SK-MEL-5): 23.8 µM (inactive); GI50 (SK-OV-3): 97.9 µM (inactive); GI50 (SN12C): > 100 µM (inactive); GI50 (SNB-19): 26.7 µM (inactive); GI50 (SNB-75): 45.7 µM (inactive); GI50 (SR): 74.3 µM (inactive); GI50 (SW-620): > 54 µM (inactive); GI50 (T47D): 6.64 µM (inactive); GI50 (TK-10): 18.9 µM (inactive); GI50 (U-251): 43.8 µM (inactive); GI50 (UACC-257): 27.2 µM (inactive); GI50 (UACC-62): > 100 µM (inactive); GI50 (UO-31): > 38.9 µM (inactive)

Q: Which results are given for `O=C(CC(O)(C(F)(F)F)C(F)(F)F)C(c1ccccc1)C(O)(C(F)(F)F)C(F)(F)F` (centres undefined)?
A: GI50 (786-0): 31.3 µM (inactive); GI50 (A498): 13.9 µM (inactive); GI50 (A549): 22.2 µM (inactive); GI50 (ACHN): 17.4 µM (inactive); GI50 (BT-549): 24 µM (inactive); GI50 (CAKI-1): 10.5 µM (inactive); GI50 (CCRF-CEM): 5.56 µM (inactive); GI50 (COLO 205): 11.4 µM (inactive); GI50 (DU-145): 26.1 µM (inactive); GI50 (EKVX): 18.4 µM (inactive); GI50 (HCC 2998): 9.1 µM (inactive); GI50 (HCT-116): 16.4 µM (inactive); GI50 (HCT-15): 9.53 µM; GI50 (HL-60): 9.71 µM (inactive); GI50 (HOP-92): 3.72 µM (inactive); GI50 (HT-29): 15.2 µM (inactive); GI50 (Hs-578T): 4.15 µM (inactive); GI50 (IGROV-1): 5.77 µM (inactive); GI50 (K562): 7.6 µM (inactive); GI50 (KM12): 8.55 µM (inactive); GI50 (LOX IMVI): 55.7 µM (inactive); GI50 (M14): 41.2 µM (inactive); GI50 (MCF7): 45.7 µM (inactive); GI50 (MDA-MB-231): > 100 µM (inactive); GI50 (MDA-MB-435): 47.3 µM (inactive); GI50 (MDA-N): 78.2 µM (inactive); GI50 (MOLT-4): 62.8 µM (inactive); GI50 (Malme-3M): 50.4 µM (inactive); GI50 (NCI-H226): 42.8 µM (inactive); GI50 (NCI-H23): 6.47 µM (inactive); GI50 (NCI-H460): 6.08 µM (inactive); GI50 (NCI-H522): 38.3 µM (inactive); GI50 (NCI/ADR-RES): 8.87 µM (inactive); GI50 (OVCAR-3): 11.5 µM (inactive); GI50 (OVCAR-4): > 100 µM (inactive); GI50 (OVCAR-5): > 100 µM (inactive); GI50 (OVCAR-8): 14.8 µM (inactive); GI50 (PC-3): 4.15 µM (inactive); GI50 (RPMI-8226): 5.33 µM (inactive); GI50 (RXF 393): 5.14 µM (inactive); GI50 (SF-295): 40 µM (inactive); GI50 (SF-539): 17.1 µM (inactive); GI50 (SK-MEL-28): 25.4 µM (inactive); GI50 (SK-MEL-2): 35.1 µM (inactive); GI50 (SK-MEL-5): 18.8 µM (inactive); GI50 (SK-OV-3): 5.92 µM (inactive); GI50 (SNB-19): 18.3 µM (inactive); GI50 (SNB-75): 1.93 µM (inactive); GI50 (SR): 9.31 µM (inactive); GI50 (SW-620): 14.4 µM (inactive); GI50 (T47D): 13.1 µM (inactive); GI50 (TK-10): 26.3 µM (inactive); GI50 (U-251): 5.45 µM (inactive); GI50 (UACC-257): 31.8 µM (inactive); GI50 (UACC-62): 20.5 µM (inactive); GI50 (UO-31): 10.3 µM (inactive)
